Blank lines part the entries; values can stand above or below the compound they belong to.
Legend:
[1] = Dielectric strength measurement in a homogeneous field, relative to SF6; format: physicochemical
Experimental: The results are as follows, expressed in a relative manner as percentage of the dielectric strength of the reference gas SF6: • HCFO-1224yd(Z): 178%.
Its dielectric strength values (with an interelectrode distance of 12 mm) is then as follows, still with respect to SF6: • HCFO-1224yd(Z) at 17° C.: 159%.

[2] = Toxicity (statement, no method)
[3] = Flammability, thermal stability, saturated vapor pressure / condensation; format: physicochemical
[4] = prior art statement; cited from earlier work
[5] = prior art statement; cited from earlier work; remark: listed apart in the source

dielectric strength as % of that of SF6 ([1]; −15° C., 1.14 bar): 51%
SMILES: O=C=O [CO2, carbon dioxide, reference compound]

SMILES: FC(=CCl)C(F)(F)F [HCFO-1224yd(Z), 1-chloro-2,3,3,3-tetrafluoropropene]
dielectric strength as percentage of the dielectric strength of the reference gas SF6 ([1]; 20° C., 1.3 bar, homogeneous field, interelectrode distance 12 mm): 178%
dielectric strength with respect to SF6 ([1]; pure state, 17° C., 1.14 bar, interelectrode distance 12 mm): 159%
toxicity [2]: very low level of toxicity
flammability [3]: nonflammable
thermal stability [3]: thermally stable
minimum temperature of use in the pure state without condensation ([3]; pressure of 1.14 bar): 17 °C
saturated pressure ([3]; −15° C.): 0.29 bar

SMILES: FS(F)(F)(F)(F)F [SF6, sulfur hexafluoride]
toxicity (background) [4]: nontoxic to man and animals
flammability (background) [5]: nonflammable

SMILES: FC(F)(F)I [trifluoroiodomethane]
toxicity (background) [4]: category-3 carcinogenic, mutagenic and reprotoxic substances

From patent US11133139B2, “Use of 1-chloro-2,3,3,3-tetrafluoropropene for isolating or extinguishing electric arcs” (Arkema France, priority 2018, dated 2021)
